# In US8940779B2, “Microbicidal composition” (Rohm and Haas Company, priority 2007, dated 2015):
# Where “and” joins values, the source holds several entries; their conditions need not be identical. Equal values may be shown once. Read-outs that look alike come from different tables or passages of the source.
# Assays:
# Type in all cases: cell-based
# [1] = tested on: Candida albicans (C. albicans, ATCC 10231); experiment: Microtiter plate MIC synergy test (Kull synergy index), yeast; details: for Ca, first component alone (QA, MIC) / Cb, MBIT alone (QB, MIC): C. albicans; for Ca, first component alone (QA, MIC): component acting alone; for Cb, MBIT alone (QB, MIC): MBIT acting alone; for MIC: Candida albicans, ATCC10231
# Excerpt: (§1) One measure of synergism is the industrially accepted method described by Kull, F. C.; Eisman, P. C.; Sylwestrowicz, H. D. and Mayer, R. L., in Applied Microbiology 9:538-541 (1961), using the ratio determined by the formula: Qa/QA+Qb/QB=Synergy Index (“SI”) wherein: • QA=concentration of compound A (first component) in ppm, acting alone, which produced an end point (MIC of Compound A). • Qa=concentration of compound A in ppm, in the mixture, which produced an end point. • QB=concentration of compound B (second component) in ppm, acting alone, which produced an end point (MIC of Compound B). • Qb=concentration of compound B in ppm, in the mixture, which produced an end point.
# (§2) When the sum of Qa/QA and Qb/QB is greater than one, antagonism is indicated. […] The lower the SI, the greater the synergy shown by that particular mixture. The minimum inhibitory concentration (MIC) of a microbicide is the lowest concentration tested under a specific set of conditions that prevents the growth of added microorganisms.
# (§3) Synergy tests were conducted using standard microtiter plate assays with media designed for optimal growth of the test microorganism. Minimal salt medium supplemented with 0.2% glucose and 0.1% yeast extract (M9GY medium) was used for testing bacteria; Potato Dextrose Broth (PDB medium) was used for testing yeast and mold. In this method, a wide range of combinations of microbicides was tested by conducting high resolution MIC assays in the presence of various concentrations of MBIT. High resolution MICs were determined by adding varying amounts of microbicide to one column of a microtitre plate and doing subsequent […] dilutions using an automated liquid handling system to obtain a series of endpoints ranging from 2 ppm to 10,000 ppm active ingredient.
# (§4) The synergy of the combinations of the present invention was determined against a bacterium, Escherichia coli (E. coli—ATCC #8739), a yeast, Candida albicans (C. albicans—ATCC 10231), and a mold, Aspergillus niger (A. niger—ATCC 16404). The bacteria were used at a concentration of about 5×10^6 bacteria per mL and the yeast and mold at 5×10^5 fungi per mL. These microorganisms are representative of natural contaminants in many consumer and industrial applications. […] (yeast and mold) or 30° C. (bacteria).
# (§5) In each test, Second Component (B) was MBIT and the First Component (A) was the other commercial microbicide.
# [2] = tested on: Ps. aeruginosa ATCC#9027; experiment: Microtiter plate MIC synergy test (Kull synergy index), bacterium; details: for Ca, first component alone (QA, MIC) / Cb, MBIT alone (QB, MIC): Ps. aeruginosa; for Ca, first component alone (QA, MIC): component acting alone; for Cb, MBIT alone (QB, MIC): MBIT acting alone; for MIC: Pseudomonas aeruginosa, ATCC9027
# [3] = tested on: S. aureus ATCC#6538; experiment: as above; details: for Ca, first component alone (QA, MIC) / Cb, MBIT alone (QB, MIC): S. aureus; for Ca, first component alone (QA, MIC): component acting alone; for Cb, MBIT alone (QB, MIC): MBIT acting alone; for MIC: Staphylococcus aureus, ATCC6538
# [4] = tested on: Aspergillus niger (A. niger, ATCC 16404); experiment: Microtiter plate MIC synergy test (Kull synergy index), mold; details: for Ca, first component alone (QA, MIC): A. niger, component acting alone; for MIC: Aspergillus niger
# Excerpt: as §1, §2, §3, §4, §5
smiles,measurement,setting,value
"N#CC(Br)(Br)C(N)=O [DBNPA, 2,2-Dibromo-3-nitrilopropionamide]","Ca, first component alone (QA, MIC)",[1]; contact time 48 hrs,44 ppm AI
same,"Ca, first component alone (QA, MIC)",[1]; contact time 72 hrs,>44 ppm AI
same,"Ca, first component alone (QA, MIC)",[2]; contact time 24 hrs,4.25 ppm AI
same,"Ca, first component alone (QA, MIC)",[2]; contact time 48 hrs,5.25 ppm AI
same,"Ca, first component alone (QA, MIC)",[3]; contact time 48 hrs,8.5 ppm AI
same,"Ca, first component alone (QA, MIC)",[4]; contact time 3 days,42.5 ppm AI
same,"Ca, first component alone (QA, MIC)",[4]; contact time 7 days,200 ppm AI
"C=O [HCHO, Formaldehyde]","Ca, first component alone (QA, MIC)",[1]; contact time 48 hrs,425 ppm AI
same,"Ca, first component alone (QA, MIC)",[1]; contact time 72 hrs,525 ppm AI
same,"Ca, first component alone (QA, MIC)",[2]; contact time 24 hrs,15 ppm AI
same,"Ca, first component alone (QA, MIC)",[2]; contact time 48 hrs,26.25 ppm AI
same,"Ca, first component alone (QA, MIC)",[3]; contact time 24 hrs,30 ppm AI
same,"Ca, first component alone (QA, MIC)",[3]; contact time 48 hrs,30 ppm AI
same,"Ca, first component alone (QA, MIC)",[4]; contact time 3 days,200 ppm AI
same,"Ca, first component alone (QA, MIC)",[4]; contact time 7 days,425 ppm AI
"Cn1sc2ccccc2c1=O [MBIT, N-methyl-1,2-benzisothiazolin-3-one]",Cb - ppm AI of MBIT (MIC end-point; alone QB or in the mixture Qb),"[1]; C. albicans ATCC # 10231, contact time 48 hrs, Table 5",30 ppm
same,Cb - ppm AI of MBIT (MIC end-point; alone QB or in the mixture Qb),"[1]; C. albicans ATCC # 10231, contact time 48 hrs, Table 6",30 ppm
same,Cb - ppm AI of MBIT (MIC end-point; alone QB or in the mixture Qb),"[1]; C. albicans ATCC # 10231, contact time 72 hrs, Table 5",30 ppm
same,Cb - ppm AI of MBIT (MIC end-point; alone QB or in the mixture Qb),"[1]; C. albicans ATCC # 10231, contact time 72 hrs, Table 6",30 ppm
same,"Cb, MBIT alone (QB, MIC)",[1]; contact time 48 hrs,30 ppm AI
same,"Cb, MBIT alone (QB, MIC)",[1]; contact time 72 hrs,30 ppm AI
same,Cb - ppm AI of MBIT (MIC end-point; alone QB or in the mixture Qb),"[2]; Ps. Aeruginosa ATCC#9027, contact time 24 hrs, Table 5",100 ppm
same,Cb - ppm AI of MBIT (MIC end-point; alone QB or in the mixture Qb),"[2]; Ps. Aeruginosa ATCC#9027, contact time 48 hrs, Table 5",175 ppm
same,Cb - ppm AI of MBIT (MIC end-point; alone QB or in the mixture Qb),"[2]; Ps. aeruginosa ATCC#9027, contact time 24 hrs, Table 6",100 ppm
same,Cb - ppm AI of MBIT (MIC end-point; alone QB or in the mixture Qb),"[2]; Ps. aeruginosa ATCC#9027, contact time 48 hrs, Table 6",175 ppm
same,"Cb, MBIT alone (QB, MIC)",[2]; contact time 24 hrs,100 ppm AI
same,"Cb, MBIT alone (QB, MIC)",[2]; contact time 48 hrs,175 ppm AI
same,Cb - ppm AI of MBIT (MIC end-point; alone QB or in the mixture Qb),"[3]; S. aureus ATCC#6538, contact time 24 hrs, Table 5",30 ppm
same,Cb - ppm AI of MBIT (MIC end-point; alone QB or in the mixture Qb),"[3]; S. aureus ATCC#6538, contact time 24 hrs, Table 6",30 ppm
same,Cb - ppm AI of MBIT (MIC end-point; alone QB or in the mixture Qb),"[3]; S. aureus ATCC#6538, contact time 48 hrs, Table 5",60 ppm
same,Cb - ppm AI of MBIT (MIC end-point; alone QB or in the mixture Qb),"[3]; S. aureus ATCC#6538, contact time 48 hrs, Table 6",60 ppm
same,"Cb, MBIT alone (QB, MIC)",[3]; contact time 24 hrs,60 ppm AI and 30 ppm AI
same,"Cb, MBIT alone (QB, MIC)",[3]; contact time 48 hrs,60 ppm AI
same,Cb - ppm AI of MBIT (MIC end-point; alone QB or in the mixture Qb),"[4]; A. niger ATCC # 16404, contact time 3 days, Table 5",37.5 ppm
same,Cb - ppm AI of MBIT (MIC end-point; alone QB or in the mixture Qb),"[4]; A. niger ATCC # 16404, contact time 3 days, Table 6",37.5 ppm
same,Cb - ppm AI of MBIT (MIC end-point; alone QB or in the mixture Qb),"[4]; A. niger ATCC # 16404, contact time 7 days, Table 5",150 ppm
same,Cb - ppm AI of MBIT (MIC end-point; alone QB or in the mixture Qb),"[4]; A. niger ATCC # 16404, contact time 7 days, Table 6",150 ppm
"CCCCCCCCn1sccc1=O [OIT, 2-N-octyl-4-isothiazolin-3-one]","Ca, first component alone (QA, MIC)",[1]; contact time 48 hrs,3.25 ppm AI
same,"Ca, first component alone (QA, MIC)",[1]; contact time 72 hrs,3.25 ppm AI
same,"Ca, first component alone (QA, MIC)",[2]; contact time 24 hrs,650 ppm AI
same,"Ca, first component alone (QA, MIC)",[2]; contact time 48 hrs,650 ppm AI
same,"Ca, first component alone (QA, MIC)",[3]; contact time 24 hrs,30 ppm AI
same,"Ca, first component alone (QA, MIC)",[3]; contact time 48 hrs,200 ppm AI
same,"Ca, first component alone (QA, MIC)",[4]; contact time 3 days,0.65 ppm AI
same,"Ca, first component alone (QA, MIC)",[4]; contact time 7 days,8.75 ppm AI
CCCC1COC(Cn2cncn2)(c2ccc(Cl)cc2Cl)O1 (stereo not shown) [propiconazole],MIC,"[1]; C. albicans ATCC # 10231, contact time 48 hrs, read-out: Ca - ppm AI of Propiconazole (MIC end-point; alone QA or in the mixture Qa)",525 µg/mL
same,MIC,"[1]; C. albicans ATCC # 10231, contact time 72 hrs, read-out: Ca - ppm AI of Propiconazole (MIC end-point; alone QA or in the mixture Qa)",525 µg/mL
same,MIC,"[2]; Ps. aeruginosa ATCC#9027, contact time 24 hrs, read-out: Ca - ppm AI of Propiconazole (MIC end-point; alone QA or in the mixture Qa)",875 µg/mL
same,MIC,"[2]; Ps. aeruginosa ATCC#9027, contact time 48 hrs, read-out: Ca - ppm AI of Propiconazole (MIC end-point; alone QA or in the mixture Qa)",875 µg/mL
same,MIC,"[3]; S. aureus ATCC#6538, contact time 24 hrs, read-out: Ca - ppm AI of Propiconazole (MIC end-point; alone QA or in the mixture Qa)",1100 µg/mL
same,MIC,"[3]; S. aureus ATCC#6538, contact time 48 hrs, read-out: Ca - ppm AI of Propiconazole (MIC end-point; alone QA or in the mixture Qa)",1100 µg/mL
same,MIC,"[4]; ATCC16404, 72 h, A. niger ATCC # 16404, contact time 3 days, read-out: Ca - ppm AI of Propiconazole (MIC end-point; alone QA or in the mixture Qa)",52.5 µg/mL
same,MIC,"[4]; ATCC16404, 168 h, A. niger ATCC # 16404, contact time 7 days, read-out: Ca - ppm AI of Propiconazole (MIC end-point; alone QA or in the mixture Qa)",87.5 µg/mL
CC(C)(C)C(O)(CCc1ccc(Cl)cc1)Cn1cncn1 (stereo not shown) [tebuconazole],MIC,"[1]; C. albicans ATCC # 10231, contact time 48 hrs, read-out: Ca - ppm AI of Tebuconazole (MIC end-point; alone QA or in the mixture Qa)",110 µg/mL
same,MIC,"[1]; C. albicans ATCC # 10231, contact time 72 hrs, read-out: Ca - ppm AI of Tebuconazole (MIC end-point; alone QA or in the mixture Qa)",110 µg/mL
same,MIC,"[2]; Ps. aeruginosa ATCC#9027, contact time 24 hrs, read-out: Ca - ppm AI of Tebuconazole (MIC end-point; alone QA or in the mixture Qa)",875 µg/mL
same,MIC,"[2]; Ps. aeruginosa ATCC#9027, contact time 48 hrs, read-out: Ca - ppm AI of Tebuconazole (MIC end-point; alone QA or in the mixture Qa)",1100 µg/mL
same,MIC,"[3]; S. aureus ATCC#6538, contact time 24 hrs, read-out: Ca - ppm AI of Tebuconazole (MIC end-point; alone QA or in the mixture Qa)",300 µg/mL
same,MIC,"[3]; S. aureus ATCC#6538, contact time 48 hrs, read-out: Ca - ppm AI of Tebuconazole (MIC end-point; alone QA or in the mixture Qa)",425 µg/mL
same,MIC,"[4]; ATCC16404, 72 h, A. niger ATCC # 16404, contact time 3 days, read-out: Ca - ppm AI of Tebuconazole (MIC end-point; alone QA or in the mixture Qa)",4.25 µg/mL
same,MIC,"[4]; ATCC16404, 168 h, A. niger ATCC # 16404, contact time 7 days, read-out: Ca - ppm AI of Tebuconazole (MIC end-point; alone QA or in the mixture Qa)",11 µg/mL
